Data published in ChEMBL document CHEMBL1145684, “New Guaiane Metabolites from the Caribbean Gorgonian Coral, Pseudopterogorgia americana” (J Nat Prod, 1997).
Values after ≈ are worked out from the molar mass of the structure shown.

What was measured:
MOLT-4 = test: Cytotoxicity against human MOLT4 cells; assay type: functional, cell-based
[1] = Cytotoxicity against chinese hamster CHOK1 cells; assay type: cell-based, Cricetulus griseus; conditions: CHO-K1 cells, read-out: ED50 (the source's name)
KM12 = test: Cytotoxicity against human KM12 cells; assay type: functional, cell-based
HeLa = test: Cytotoxicity against human HeLa cells; assay type: functional; conditions: read-out: ED50 (the source's name)

Question: With `CO[C@]12C[C@@H](C)[C@]34O[C@H]3C[C@@]3(C)O[C@@]43CC1=C(C)C(=O)O2` [METHOXYAMERICANOLIDE A] as the compound, how does the IC50 (MOLT-4) read?
Answer: The IC50 was 0.1 µg/mL (≈ 0.342 µM).

Question: For `CC1=C2CC3=C(C)C(=O)O[C@H]3C[C@@H](C)[C@@H]2CC1` [AMERICANOLIDE D], which CC50 [1] is on record?
Answer: The CC50 was 100 µg/mL (≈ 430 µM).

Question: What about the IC50 (KM12) of the same compound?
Answer: Its IC50 is 0.1 µg/mL (≈ 0.43 µM).

Question: And the EC50 (HeLa)?
Answer: The EC50 was 30 µg/mL (≈ 129 µM).
